Experimental data: ChEMBL document CHEMBL2095176, “GSK Tuberculosis Screening Data”
In brackets after ≈: the same amount, converted by molar mass.

Legend:
[1] = tested on: Mycobacterium tuberculosis H37Rv; assay: microbe, parasite or virus in culture
Description: GSK_TB: Intracellular minimum inhibitory concentration (MIC) H37Rv assay

[2] = buffer, pH 7.4
Description: GSK_TB: GSK in-house hydrophobicity assay at pH7.4 (logD)

[3] = octanol/water
Description: GSK_TB: GSK in-house hydrophobicity assay (logP)

physchem = details: phosphate buffered saline, pH 7.4

**Q.** Which MIC90 [1] does the source give for `CC(C)(C)c1ccc(-c2nnc(SCC(=O)OC3CCCCC3)o2)cc1` here?
**A.** 1.74 µM (≈ 0.651 µg/mL)

**Q.** What about the logD7.4 [2] of the same compound?
**A.** 9.17

**Q.** And the logP [3]?
**A.** 9.65

**Q.** And the solubility kinetic (physchem)?
**A.** 1 µM (≈ 0.375 µg/mL)
